In patent publication US6451735B1, “Glyphosate formulation” (priority 1998, dated 2002):
Counter-ions that a name gives are not always drawn.

Assay: solubility in water and solution density of glyphosate salt
Format: physicochemical

With `O=C(O)CNCP(=O)(O)O` [potassium salt of glyphosate, N-phosphonomethylglycine] the density of solutions (aqueous solution) was “about 1.45 g/cc” and the solubility in water (water) was “readily soluble”.
